The record followed here is patent US9938235B2, “Compounds with neural protective effect, and preparation and use thereof” (GUANGZHOU MAGPIE PHARMACEUTICAL CO., LTD., priority 2014, dated 2018).

The test system of test [1] is MPTP-induced abnormal behavior of mice of Parkinson's disease (PD) model. Put plainly: Behavioral test in MPTP-induced mice of Parkinson's disease (PD) model. Type of test: in vivo, C57BL/6J mice. As to conditions: MT-019 25, 75, 225 mg/kg once a day for seven days; behavioral test on day 7 of administration. The procedure: (§1) Forty of C57BL/6J mice (male, 6 to 7 week-old) were feed for 7 days to adapt to the environment. On the day 8, animal model was started to prepare. 20 mg/kg MPTP was given via intraperitoneal injection for the model group and drug group, the injection was made every 2 hours, for four times in total, and an acute PD model was established. The equivalent amount of saline was given to the normal control group. From the day 2 of model establishment, the compound MT-019 and the positive control drug Rasagiline (1 mg/kg) were given. The doses of MT-019 were 25, 75, 225 mg/kg, respectively. The drug was given once a day, and a equal amount of saline was given to the normal control group and the MPTP model group, for seven days consecutively. On the day 7 of drug administration, behavioral test is performed.

Another test relates to TH neurons in SNpc area. Put plainly: TH neuron immunohistochemistry, SNpc area, MPTP-induced PD mice. Type of test: in vivo, C57BL/6J mice. How it is done: as §1
After the above-mentioned animal model was set up and drug was given to the mice as described in Example 86, materials was taken at 12 hours after the last drug administration in the steps shown below: (1) With 10% chloral hydrate anesthesia in mice, the mice were fixed on an operating table, the chest thereof was quickly open; (2) […], […] the left ventricle, the right auricle was cut open, and a blood buffer was delivered to the heart from an infusion bottle with a volume of about 50 mL per mouse; (3) after the lavage fluid became colorless, the blood buffer was replaced with 4% paraformaldehyde solution in perfusion until the tail and limbs of the mice became stiff, wherein the infusion volume was about 100 mL per mouse; (4) the brain was taken by making the mice beheaded on a flat glass board, and redundant parts were carefully removed. The midbrain was placed and fixed in a centrifuge tube containing freshly prepared 4% paraformaldehydea. The samples were cut into paraffin sections through the process of dehydrating, transparent, paraffining and embedding steps. Each of the samples was cut with paraffin slicing machine into four microns slices. After fully unfold in water bath, the slices were put on glass plates and numbered. […]

Each structure is given as a SMILES string.

Consider `C#CCNC(C)c1ccc(/C=[N+](\[O-])C(C)(C)C)c(OC(=O)N(C)CC)c1` (stereo not shown) [MT-019], for which the “recovery effect to MPTP-induced abnormal behavior” value in test [1] is reported as “had recory effect”. Also, in the test with TH neurons in SNpc area (25 mg/kg MT-019 versus Rasagiline 1 mg/kg), the “protective effect to dopaminergic neurons compared with positive control Rasagiline” value is “equivalent to that of the positive control drug Rasagiline 1 mg/kg”. Further, in the test on TH neurons in SNpc area (MT-019 25, 75, 225 mg/kg once a day for seven days, material taken 12 hours after last administration), the “protective effect on SNpc area TH neurons (positive cell count in substantia nigra)” value is given as “had protective effect”. The “dose dependence of protective effect on TH neurons” value in the test on TH neurons in SNpc area (doses 25, 75, 225 mg/kg) is reported as “stronger effect was indicated with higher doses”.
